Results taken from patent publication US20190015423A1, “REGULATION OF GENE EXPRESSION BY MODULATING PRIMARY CILIA LENGTH” (THE TRUSTEES OF COLUMBIA UNIVERSITY IN THE CITY OF NEW YORK, priority 2016, published 2019).
Entries after “also recorded” stand apart in the source; their conditions may differ. Counter-ions that a name gives are not always drawn.

How the values were obtained:
MLO-Y4 osteocytes [1] = assay: Primary cilia length and incidence by immunocytochemistry (acetylated α-tubulin); format: cell-based; settings: for cilia incidence in untransfected (healthy, ciliated) cells: fenoldopam; for cilia incidence in AC6 siRNA treated cells / recovering cilia length in AC6 siRNA treated cells: fenoldopam on AC6 siRNA treated cells
Protocol: MLO-Y4 osteocytes were cultured on collagen-coated dishes in MEMα (Life Tech) supplemented with 5% fetal bovine serum, 5% calf serum, and 1% penicillin/streptomycin at 37° C. and 5% CO2. […] These agents, or their vehicle control, were applied to cells for 16 h prior to experimentation. MTT, (methylthiazolyldiphenyl-tetrazolium bromide) assay (Sigma) was performed according to manufacturer's protocol to assess cell viability during drug treatments. Phase contrast microscopy with an Olympus CKX41 inverted microscope and 40× objective was used to assess cell morphology.
For primary cilia imaging and analysis, cells cultured on collagen I-coated glass were fixed in 10% formalin and treated with anti-acetylated α-tubulin primary antibody, 1:1, from a C3B9 hybridoma cell line (Sigma). Cilia were visualised with Alexa-Fluor 488 secondary antibody, 1:1000 (Life Technologies) and imaged with a 100× oil objective on an Olympus Fluoview FV1000 confocal microscope. Nuclei were stained with DAPI (Life Technologies). Cilia length was analyzed using Image J software.
Gene silencing was performed by siRNA mediated knockdown and compared to scramble siRNA control (Life Technologies). […]

MLO-Y4 osteocytes [2] = assay: Oscillatory fluid flow-induced mRNA expression (COX-2, OPN, AC6), flow vs no flow; format: cell-based; settings: for COX-2 mRNA response to flow (in words) / OPN mRNA response to flow (in words): fenoldopam 16 hours, flow 1 hour, relative to GAPDH
MLO-Y4 osteocytes [3] = assay: mRNA expression (AC6, IFT88) by quantitative real-time PCR, no flow; format: cell-based; settings: for IFT88 mRNA expression in untransfected cells: fenoldopam
C3H10T1/2 MSCs = assay: Flow-induced paracrine signaling: conditioned media of treated osteocytes on MSCs (OSX mRNA); format: cell-based; settings: osteocytes treated with fenoldopam 10 μM 16 hours; MSCs cultured 48 hours in conditioned media
Protocol: Osteocytes were seeded at 2800 cells/cm2 for 72 hours before application of fluid flow. MC3T3 osteoblasts were cultured in MEMα supplemented with 10% FBS and 1% P/S. Osteoblasts were seeded at 2000 cells/cm2 72 hours before receiving conditioned media. C3H10T1/2 MSCs were cultured in DMEM low glucose (Life Technologies) supplemented with 10% FBS and 1% P/S, and seeded at 1100 cells/cm2 72 hours before culture with conditioned media 150. […] Osteocytes were cultured on rectangular flasks (8.2×9.2 cm; 12.5 ml of media) on a rocking platform which oscillated at a frequency of 0.33 Hz with an amplitude of 1.3 cm, supplying 0.08 Pa shear stress for 2, 6, 12, or 24 hours, FIG. 4.2. Shear stress generated by oscillatory fluid flow was calculated as previously performed 153. 12 hours of fluid flow was used in all experiments. Cells were also cultured in static conditions as a no flow control. Conditioned media was collected from osteocytes immediately upon completion of rocking, and used to culture osteoblasts or MSCs for 24 or 48 hours, respectively. […] Gene expression was analyzed by quantitative real-time PCR using primers and probes (Life Technologies) for analysis of osteopontin, OPN (Mm00436767_m1), osterix, OSX (Mm04209856_m1), and GAPDH (4351309). […]

[4] = μCT analysis of non-loaded ulnae; format: in vivo, mice; settings: for μCT: normal bone properties / microarchitecture (in words): 7 days, non-loaded ulnar midshaft
Protocol: Non-loaded ulnae were used for μCT analysis. Samples were imaged with a Scanco ViaCT 80 at 10.5 μm isotropic resolution. Images were processed using a Gaussian filter and global threshold to segment bone volumes. Ulnar midshafts were imaged and used to assess cortical bone, while the proximal epiphysis was used to examine ulnar trabecular bone. Cortical bone analysis was performed to determine total area, cortical area, marrow area, bone volume fraction (BV/TV), cortical thickness, moment of inertia (Imax and Imin), and bone mineral density (BMD). Trabecular analyses included BV/TV, connectivity density, trabecular number, trabecular thickness, trabecular spacing, and BMD.

[5] = Adverse effects of drug treatment: body, kidney and liver weight, H&E histology, bone ultrastructure, injection site; format: in vivo, mice; settings: fenoldopam 20 mg/kg; for visible bone ultrastructure: loaded ulnae
Description: Mice were housed in the Columbia University Barrier Facility and fed ad libidum. All procedures performed were in accordance with Columbia University Institutional Animal Care and Use Committee guidelines.
Kidneys and liver were dissected from animals, weighed, fixed in 10% formalin, and stored in 70% ethanol before being paraffin embedded. 5 μm thick longitudinal sections were made, and samples were stained with hematoxylin and eosin to visualize tissue structure. Images were captured at 4× magnification. Kidney function was broadly examined by urine creatinine concentration. […] Hydrophobic sand (Lab Sand) was used for urine sample collection, and analysis was performed using a total urine creatinine kit (Cayman Chemical).

[6] = fenoldopam 100 mg/kg, rat model (Dalmas et al. 2008); cited from earlier work
[7] = fenoldopam on IFT88 siRNA treated cells
[8] = 10 μM fenoldopam 16 h, flow 1 hr, fold change flow over no flow
[9] = fenoldopam on AC6 siRNA treated cells
[10] = fenoldopam treatment of osteocytes
[11] = Table 1, ulnar midshaft, Female

## Oc1ccc(C2CNCCc3c2cc(O)c(O)c3Cl)cc1 (stereo not shown) [fenoldopam, Fenoldopam mesylate]
MLO-Y4 osteocytes [1]; 10 μM fenoldopam, 16 h
  primary cilia length compared to vehicle control (in words): significantly increases
MLO-Y4 osteocytes [1]; 10 μM fenoldopam, 16 h, listed as Fenoldopam
  primary cilia length compared to vehicle control (in words): increased
MLO-Y4 osteocytes [1]; 10 μM fenoldopam, 16 h, mean±SEM
  increases in cilia length compared to vehicle control: 26%±7%
MLO-Y4 osteocytes [1]
  cilia incidence in untransfected (healthy, ciliated) cells: no significant effect
  cilia incidence in AC6 siRNA treated cells: Neither AC6 siRNA nor fenoldopam alter cilia incidence
  recovering cilia length in AC6 siRNA treated cells: not recovered
MLO-Y4 osteocytes [1]; listed as Fenoldopam
  cilia incidence in AC6 siRNA treated cells: no effect
  recovering cilia length in AC6 siRNA treated cells: no effect
  cilia incidence in untransfected (healthy, ciliated) cells: no effect
MLO-Y4 osteocytes [1]; [7]
  cilia incidence in IFT88 siRNA treated cells: significantly recovering; also recorded: recovered
  cilia length / formation in IFT88 siRNA treated cells: noticeably recovered; also recorded: appears to recover cilia length
MLO-Y4 osteocytes [1]; fenoldopam on IFT88 siRNA treated cells, listed as Fenoldopam
  cilia length / formation in IFT88 siRNA treated cells: recovers primary cilia formation
MLO-Y4 osteocytes [2]; [8]
  elevated flow-induced COX-2 mRNA expression compared to unlengthened controls: 124%±27%
  elevated flow-induced OPN mRNA expression compared to unlengthened controls: 48%±8%
MLO-Y4 osteocytes [2]
  COX-2 mRNA response to flow (in words): significant increases
  OPN mRNA response to flow (in words): significant increases
MLO-Y4 osteocytes [2]; listed as Fenoldopam
  COX-2 mRNA response to flow (in words): increased
  OPN mRNA response to flow (in words): increased
MLO-Y4 osteocytes [2]; [9]
  AC6 mRNA expression in AC6 siRNA treated cells under flow: not recovered
  flow-induced OPN mRNA expression in AC6 siRNA treated cells: not recovered
MLO-Y4 osteocytes [2]; [7]
  flow stimulated OPN expression in IFT88 siRNA treated cells (in words): able to recover
MLO-Y4 osteocytes [2]; fenoldopam on IFT88 siRNA treated cells, flow 1 h
  recovery of flow-induced OPN response compared to IFT88 siRNA and vehicle treated cells: 52%±1%
MLO-Y4 osteocytes [3]
  IFT88 mRNA expression in untransfected cells: no significant effect
MLO-Y4 osteocytes [3]; [10]
  AC6 mRNA expression (in words): significantly increases
  increase in AC6 mRNA expression: 20%±8%
MLO-Y4 osteocytes [3]; listed as Fenoldopam
  IFT88 mRNA expression in untransfected cells: did not alter
C3H10T1/2 MSCs
  MSC osteogenic differentiation, as measured by osterix (OSX) expression: significantly enhanced
[4]; [11]
  Cortical area: 0.310 ± 0.003 mm^2
  Cortical thickness: 0.173 ± 0.006 mm
  Imax: 0.029 ± 0.001 mm^4
  Imin: 0.005 ± 0.000 mm^4
  Porosity: 0.131 ± 0.006%
[4]; Table 1, ulnar midshaft, Female, fenoldopam 20 mg/kg 7 days
  Total area: 0.357 ± 0.005 mm^2
[4]; Table 1, ulnar midshaft, Male
  Cortical area: 0.320 ± 0.023 mm^2
  Cortical thickness: 0.169 ± 0.009 mm
  Imax: 0.033 ± 0.007 mm^4
  Imin: 0.004 ± 0.001 mm^4
  Porosity: 0.134 ± 0.003%
[4]; Table 1, ulnar midshaft, Male, fenoldopam 20 mg/kg 7 days
  Total area: 0.370 ± 0.027 mm^2
[4]; Table 5, cortical, Female
  Cortical area: 0.310 ± 0.003 mm^2
  Cortical thickness: 0.173 ± 0.006 mm
  Imax: 0.029 ± 0.001 mm^4
  Imin: 0.005 ± 0.000 mm^4
[4]; Table 5, cortical, Male
  Cortical area: 0.320 ± 0.009 mm^2
  Cortical thickness: 0.169 ± 0.004 mm
  Imax: 0.033 ± 0.003 mm^4
  Imin: 0.004 ± 0.001 mm^4
  Marrow area: 0.049 ± 0.001 mm^2
[4]; Table 5, ulnar midshaft - cortical, non-loaded, Female, 20 mg/kg fenoldopam
  Total area: 0.357 ± 0.005 mm^2
[4]; Table 5, ulnar midshaft - cortical, non-loaded, Male, 20 mg/kg fenoldopam
  Total area: 0.370 ± 0.010 mm^2
[4]; fenoldopam 20 mg/kg
  μCT: normal bone properties / microarchitecture (in words): no change; also recorded: no difference
[4]; fenoldopam 20 mg/kg, listed as Fenoldopam
  μCT: normal bone properties / microarchitecture (in words): did not result in any change
[4]; fenoldopam 20 mg/kg, preliminary study, data not shown
  μCT: normal cortical bone properties including thickness, area, and moment of inertia: no change
[5]; 7 days, vs vehicle control
  visible bone ultrastructure: no difference
  kidney morphology assessed by H&E stain: remained unchanged
  kidney weight: remained unchanged
  mouse weight: remained unchanged
[5]; 7 days, vs vehicle control, listed as Fenoldopam
  visible bone ultrastructure: no qualitative change
[5]; preliminary study
  kidney histology: no abnormalities or cysts
  kidney weight to body mass measurements: no different than vehicle controls
[6]
  vasotoxicity: vasotoxic
